melting point: 159 to 160 °C
Compound: CCCC(O)c1c(CC)nc2c(-c3ccc(Cl)cc3Cl)nccn12 (stereo not shown) [Example 7, 8-(2,4-dichlorophenyl)-2-ethyl-3-(1-hydroxybutyl)imidazo[1,2-a]pyrazine]

— patent US6589952B2, “Imidazo[1,2-a]pyrazines for the treatment of neurological disorders” (Bristol-Myers Squibb Pharma Company, priority 2000, dated 2003)
